Measured values reported in patent publication US6218406A, “Farnesyl transferase inhibitors, their preparation, the pharmaceutical compositions which contain them and their use in the preparation of medicaments” (Aventis Pharma S.A., priority 1996, dated 2001).
Where a name gives a salt, the structure may show the parent alone.

Target: farnesyl transferase (Homo sapiens, UniProt P49354+P49356)
Assay: Farnesyl transferase inhibition, [3H]-farnesylation of biotinylated K-ras C-terminal peptide (SPA assay)
Format: biochemical
Conditions: K-Ras substrate; 60 min at 37° C.; mean of two IC50 values; read-out: In vitro inhibitory activity (K-Ras) IC50
Method: The farnesyl transferase activity was measured by the amount farnesylated of K-ras substrate or of substrate derived from the peptide corresponding to its C-terminal part, the farnesyl group being introduced by farnesyl pyrophosphate (FPP).
It was then brought into contact with PVT-streptavidin (Amersham)® beads and was quantified by proximity scintillation (SPA assay) between the tritium and the PVT beads, by virtue of the streptavidin/biotin interaction.
Experimentally, farnesyl transferase purified according to the appended protocol was diluted, for this assay, to a concentration such that a consumption of substrates of less than 30% was obtained.
The reaction, carried out in Optiplates 96° microtitration plates, was initiated by the enzyme and lasted sixty minutes at 37° C. It was stopped by addition of 150 μl of mixture of a blocking buffer at pH 4 composed of 0.2M H3 PO4, 1.5 mM MgCl2, 0.5% (w/v) BSA, 0.05% (w/v) sodium azide containing 200 μg of PVT-streptavidin beads.
After slow agitation for thirty minutes (in order to remove the chemiluminescence), the plates were read as [^3 H]CPM in a Top Count® (Packard) scintillation counter for microplates, where they were converted into [^3 H]DPM from a range of coloured agent attenuating the scintillation (quenching).
The percentages of inhibition were calculated with respect to an inhibitor-free control after subtraction from all the values of that of a blank which only contained the substrates and the buffer.
The IC50 values were calculated or measured, from the inhibitions obtained at nine different concentrations, with Enzfitter® or Grafit® software. The IC50 values which appear in the results are the mean of measurements and calculations of two IC50 values.

In order of rising IC50:
1. C=C(C(=O)N1C[C@@H]2[C@]3(c4cccc(F)c4)CC[C@@H](c4ccccc43)[C@]2(C(=O)O)C1)c1ccccc1OC (racemic) [Example 86, (3aRS,4SR,9SR,9aRS)-4,9-ethano-9-(3-fluorophenyl)-2-[2-(2-methoxyphenyl)propenoyl]-2,3,3a,4,9,9a-hexahydro-1H-benzo[f]isoindole-3a-carboxylic Acid]  5 nM
2. C=C(C(=O)N1C[C@@H]2[C@]3(c4cccc(Cl)c4)CC[C@@H](c4ccccc43)[C@]2(C(=O)O)C1)c1ccccc1OC (racemic) [Example 89, (3aRS,4SR,9SR,9aRS)-9-(3-chlorophenyl)-4,9-ethano-2-[2-(2-methoxyphenyl)propenoyl]-2,3,3a,4,9,9a-hexahydro-1H-benzo[f]isoindole-3a-carboxylic Acid]  5 nM
3. C=C(C(=O)N1C[C@@H]2[C@]3(c4cccc(Br)c4)CC[C@@H](c4ccccc43)[C@]2(C(=O)O)C1)c1ccccc1OC (racemic) [Example 84, (3aRS,4SR,9SR,9aRS)-9-(3-bromophenyl)-4,9-ethano-2-[2-(2-methoxyphenyl)propenoyl]-2,3,3a,4,9,9a-hexahydro-1H-benzo[f]isoindole-3a-carboxylic Acid]  8 nM
4. C=C(C(=O)N1C[C@@H]2[C@]3(c4ccc(OC)cc4)CC[C@@H](c4ccccc43)[C@]2(C(=O)O)C1)c1ccccc1OC (racemic) [Example 74, (3aRS,4SR,9SR,9aRS)-4,9-ethano-9-(4-methoxyphenyl)-2-[2-(2-methoxyphenyl)propenoyl]-2,3,3a,4,9,9a-hexahydro-1H-benzo[f]isoindole-3a-carboxylic Acid]  48 nM
5. C=C(C(=O)N1C[C@@H]2[C@]3(c4ccc(OC)cc4)CC[C@@H](c4ccccc43)[C@]2(C(=O)NO)C1)c1ccccc1OC (racemic) [Example 78, (3aRS,4SR,9SR,9aRS)-4,9-ethano-9-(4-methoxyphenyl)-2-[2-(2-methoxyphenyl)propenoyl]-2,3,3a,4,9,9a-hexahydro-1H-benzo[f]isoindole-3a-hydroxamic acid]  48 nM
6. C=C(C(=O)N1C[C@@H]2[C@]3(c4ccc(OC(F)(F)F)cc4)CC[C@@H](c4ccccc43)[C@]2(C(=O)O)C1)c1ccccc1OC (racemic) [Example 82, (3aRS,4SR,9SR,9aRS)-4,9-ethano-2-[2-(2-methoxyphenyl)propenoyl]-9-(4-trifluoromethoxyphenyl)-2,3,3a,4,9,9a-hexahydro-1H-benzo[f]isoindole-3a-carboxylic Acid]  97 nM
7. C=C(C(=O)N1C[C@@H]2[C@]3(c4cccc(Br)c4)CC[C@@H](c4ccccc43)[C@]2(C(=O)OC)C1)c1ccccc1OC (racemic) [Example 83, methyl (3aRS,4SR,9SR,9aRS)-9-(3-bromophenyl)-4,9-ethano-2-[2-(2-methoxyphenyl)propenoyl]-2,3,3a,4,9,9a-hexahydro-1H-benzo[f]isoindole-3a-carboxylate]  319 nM
8. C=C(C(=O)N1C[C@@H]2[C@]3(c4cccc(Cl)c4)CC[C@@H](c4ccccc43)[C@]2(C(=O)OC)C1)c1ccccc1OC (racemic) [Example 88, methyl (3aRS,4SR,9SR,9aRS)-9-(3-chlorophenyl)-4,9-ethano-2-[2-(2-methoxyphenyl)propenoyl]-2,3,3a,4,9,9a-hexahydro-1H-benzo[f]isoindole-3a-carboxylate]  404 nM
9. C=C(C(=O)N1C[C@@H]2[C@]3(c4cccc(F)c4)CC[C@@H](c4ccccc43)[C@]2(C(=O)OC)C1)c1ccccc1OC (racemic) [Example 85, methyl (3aRS,4SR,9SR,9aRS)-4,9-ethano-9-(3-fluorophenyl)-2-[2-(2-methoxyphenyl)propenoyl]-2,3,3a,4,9,9a-hexahydro-1H-benzo[f]isoindole-3a-carboxylate]  508 nM
10. C=C(C(=O)N1C[C@@H]2[C@]3(c4cccc(N)c4)CC[C@@H](c4ccccc43)[C@]2(C(=O)OC)C1)c1ccccc1OC (racemic) [Example 93, methyl (3aRS,4SR,9SR,9aRS)-9-(3-aminophenyl)-4,9-ethano-2-[2-(2-methoxyphenyl)propenoyl]-2,3,3a,4,9,9a-hexahydro-1H-benzo[f]isoindole-3a-carboxylate hydrochloride]  786 nM
